Measurements as given in article PMC12920294, “Optimizing uPAR-targeting radiopeptides for improved tissue distribution: progress towards radionuclide therapy” (European Journal of Nuclear Medicine and Molecular Imaging, 2025).
Like-named read-outs stand apart in the source and are kept apart here.

Assays:
[1] = assay type: in vitro ADME; details: 1 µM
Method: The ^177Lu-labeled peptides (50 MBq/nmol) were incubated in mouse or human blood plasma (10 MBq/200 µL) over an incubation period of 24 h at 37 °C. Aliquots and control samples of the radiopeptides diluted in saline were analyzed after 1 h, 4 h and 24 h using thin layer chromatography (TLC) as previously reported (Supplementary Material). The distribution coefficients (logD values) of the ^177Lu-labeled peptides (50 MBq/nmol) were determined using a shake-flask method according to a previously published procedure (Supplementary Material).
Methods: A sample of each radiopeptide (50 MBq/nmol) was added to mouse blood plasma (Lot: 32321, Rockland Immunochemicals Inc., USA) or to human blood plasma (Stiftung Blutspende SRK Aargau-Solothurn, Switzerland) to obtain an activity concentration of 10 MBq/200 µL. The test samples were incubated at 37 °C for up to 24 h. Control samples referred to the radiopeptides which were instead diluted in saline at an activity concentration of 10 MBq/200 µL. Aliquots of each sample (2 µL, ~100 kBq) were taken after 1 h, 4 h and 24 h and investigated by means of thin layer chromatography (TLC). The employed method involved reversed-phase TLC plates (MERCK Analytical Chromatography, TLC Silica gel 60 RP-18 F254s) as stationary phase and ACN/citrate buffer (3:7; v/v; pH 5.5) as mobile phase. After the eluent reached the front line, the TLC plates were dried and exposed to a phosphor screen (Super resolution screen PSR10450013, PerkinElmer) for 1 min. The respective screen was developed using a storage phosphor system (Cyclone Plus, PerkinElmer) and analyzed using the OptiQuant Software (version 5.0, Bright Instrument Co Ltd., PerkinElmer).

[2] = tested on: HEK-uPAR xenograft-bearing mice; details: mouse, in vivo
Method: Single-photon emission computed tomography/computed tomography (SPECT/CT) experiments were performed using a small-animal SPECT/CT camera (NanoSPECT/CTTM, Mediso Medical Imaging Systems, Budapest, Hungary) as described previously (Supplementary Material). HEK-uPAR xenografted nude mice were scanned at 1 h, 4 h, 24 h […] after injection of the respective radiopeptide (25 MBq, 0.5 nmol, in 100 μL 0.9% NaCl containing 0.05% bovine serum albumin (BSA)) The images were prepared using VivoQuant post-processing software (version 3.5, inviCRO Imaging Services and Software, Boston, USA). A Gauss post-reconstruction filter (full width at half maximum, 1.0 mm) was applied and the scale of activity was set as indicated on the images (minimum value = 0.2 Bq/voxel, maximum value = 20 Bq/voxel). Methods: SPECT/CT experiments were performed with CD1 nude mice (Crl:CD1-Foxn1^nu) approximately 3-9 weeks after HEK-uPAR cell inoculation. The mice were scanned 1 h, 4 h and 24 h post injection (p.i.) of the respective radiopeptide (25 MBq, 0.5 nmol, 100 μL, diluted in 0.9% NaCl containing 0.05% bovine serum albumin (BSA)). Imaging studies were performed using a four-head, multiplexing, multi-pinhole small-animal SPECT/CT camera (NanoSPECT/CT^TM, Mediso Medical Imaging Systems, Budapest, Hungary). Each head was outfitted with a tungsten-based aperture of nine 1.4 mm-diameter pinholes and a thickness of 10 mm. CT scans of 7-9 min duration were followed by SPECT scans of 45-50 min. The images were acquired using Nucline Software (version 10.2, Mediso Ltd., Budapest, Hungary). The real-time CT reconstruction used a cone-beam filtered backprojection. The reconstruction of SPECT data was performed with HiSPECT software (version 1.4.3049, […] GmbH, Göttingen, Germany) using γ-energies of 56.1 keV (± 10%), 112.9 keV (± 10%) and 208.4 keV (± 10%) for lutetium-177. The images were prepared using VivoQuant post-processing software (version 3.5, inviCRO Imaging Services and Software, Boston, USA). A Gauss post-reconstruction filter (full width at half maximum, 1.0 mm) was applied and the scale of activity was set as indicated on the images (minimum value = 0.2 Bq/voxel, maximum value = 20 Bq/voxel).

[3] = tested on: HEK-uPAR xenograft-bearing mice; details: mouse, in vivo; remark: listed apart in the source
in vivo = details: CD1 nude, mouse, 0.5 nmol/mouse, total radioactivity

| Human blood plasma stability, intact radiopeptide ([1]; 1 h) [%] | Mouse blood plasma stability, intact radiopeptide ([1]; 1 h) [%] | Human blood plasma stability, intact radiopeptide ([1]; 4 h) [%] | Mouse blood plasma stability, intact radiopeptide ([1]; 4 h) [%] | Human blood plasma stability, intact radiopeptide ([1]; 24 h) [%] | Mouse blood plasma stability, intact radiopeptide ([1]; 24 h) [%] | SPECT/CT: accumulation in HEK-uPAR xenograft [2] | Xgrft-to-liver ratio [3] | tissue uptake at 4 h (in vivo; Blood uptake) [%ID/g] | tissue uptake at 24 h (in vivo; Blood uptake) [%ID/g] | tissue uptake at 4 h (in vivo; Bone uptake) [%ID/g] | tissue uptake at 24 h (in vivo; Bone uptake) [%ID/g] | tissue uptake at 4 h (in vivo; Brain uptake) [%ID/g] | tissue uptake at 24 h (in vivo; Brain uptake) [%ID/g] | tissue uptake at 4 h (in vivo; HEK-uPAR xenograft uptake) [%ID/g] | tissue uptake at 24 h (in vivo; HEK-uPAR xenograft uptake) [%ID/g] | tissue uptake at 4 h (in vivo; Heart uptake) [%ID/g] | tissue uptake at 24 h (in vivo; Heart uptake) [%ID/g] | tissue uptake at 4 h (in vivo; Intestines uptake) [%ID/g] | tissue uptake at 24 h (in vivo; Intestines uptake) [%ID/g] | Compound | further results |
| --- | --- | --- | --- | --- | --- | --- | --- | --- | --- | --- | --- | --- | --- | --- | --- | --- | --- | --- | --- | --- | --- |
| 100 ± 1 | 100 ± 1 | 100 ± 1 | 97 ± 4 | 97 ± 2 | 99 ± 2 | almost entirely cleared at 24 h p.i. | 7.4 ± 1.0 | 4.5 ± 0.2 | 0.06 ± 0.01 | 0.66 ± 0.09 | 0.19 ± 0.03 | 0.1 ± 0.01 | < 0.03 | 9 ± 0.5 | 3.4 ± 0.3 | 1.7 ± 0.1 | 0.15 ± 0.01 | 0.81 ± 0.04 | 0.21 ± 0.03 | Cc1ccc(CCCC(=O)NCCOCCOCCOCCOCCC(=O)NC[C@H](NC(=O)CN2CCN(CC(=O)O)CCN(CC(=O)O)CCN(CC(=O)O)CC2)C(=O)N[C@@H](CC(=O)O)C(=O)N[C@@H](CC2CCCCC2)C(=O)N[C@@H](Cc2ccccc2)C(=O)N[C@H](CO)C(=O)N[C@H](CCCNC(=N)N)C(=O)N[C@@H](Cc2ccc(O)cc2)C(=O)N[C@@H](CC(C)C)C(=O)N[C@@H](Cc2c[nH]c3ccccc23)C(=O)N[C@@H](CO)C(N)=O)cc1 [[^177Lu]Lu-uPAR-14, metal not drawn] | tissue uptake at 4 h (in vivo; Kidneys uptake): 4 ± 0.3 %ID/g; tissue uptake at 24 h (in vivo; Kidneys uptake): 2 ± 0.3 %ID/g; tissue uptake at 4 h (in vivo; Liver uptake): 2 ± 0.2 %ID/g; tissue uptake at 24 h (in vivo; Liver uptake): 0.47 ± 0.05 %ID/g; tissue uptake at 4 h (in vivo; Lung uptake): 3 ± 0.6 %ID/g; tissue uptake at 24 h (in vivo; Lung uptake): 0.3 ± 0.02 %ID/g; tissue uptake at 4 h (in vivo; Muscle uptake): 0.51 ± 0.02 %ID/g; tissue uptake at 24 h (in vivo; Muscle uptake): 0.05 ± 0.01 %ID/g; tissue uptake at 4 h (in vivo; Pancreas uptake): 0.68 ± 0.03 %ID/g; tissue uptake at 24 h (in vivo; Pancreas uptake): 0.12 ± 0.01 %ID/g; tissue uptake at 4 h (in vivo; Salivary glands uptake): 1.1 ± 0.1 %ID/g; tissue uptake at 24 h (in vivo; Salivary glands uptake): 0.26 ± 0.03 %ID/g; tissue uptake at 4 h (in vivo; Spleen uptake): 0.99 ± 0.08 %ID/g; tissue uptake at 24 h (in vivo; Spleen uptake): 0.54 ± 0.11 %ID/g; tissue uptake at 4 h (in vivo; Stomach uptake): 0.69 ± 0.13 %ID/g; tissue uptake at 24 h (in vivo; Stomach uptake): 0.16 ± 0.03 %ID/g |
| 100 ± 1 | 100 ± 1 | 99 ± 1 | 97 ± 2 | 96 ± 1 | 61 ± 9 | almost entirely cleared at 24 h p.i. | 10 ± 3 | 6 ± 1.3 | < 0.03 | 0.82 ± 0.1 | 0.06 ± 0.01 | 0.13 ± 0.04 | < 0.03 | 8 ± 0.7 | 2.1 ± 0.5 | 2.2 ± 0.4 | 0.07 ± 0.01 | 0.87 ± 0.18 | 0.05 ± 0.01 | Cc1ccc(CCCC(=O)NCCOCCOCCOCCOCCC(=O)NCCCC[C@H](NC(=O)CC[C@H](C(=O)O)N2CCN(CC(=O)O)CCN(CC(=O)O)CCN(CC(=O)O)CC2)C(=O)N[C@@H](CC(=O)O)C(=O)N[C@@H](CC2CCCCC2)C(=O)N[C@@H](Cc2ccccc2)C(=O)N[C@H](CO)C(=O)N[C@H](CCCNC(=N)N)C(=O)N[C@@H](Cc2ccc(O)cc2)C(=O)N[C@@H](CC(C)C)C(=O)N[C@@H](Cc2c[nH]c3ccccc23)C(=O)N[C@@H](CO)C(N)=O)cc1 [[^177Lu]Lu-uPAR-17, metal not drawn] | Kidneys uptake ([3]; CD1 nude, 0.5 nmol/mouse, 24 h): 1.3 ± 0.2 %IA/g; tissue uptake at 4 h (in vivo; Kidneys uptake): 4.6 ± 0.3 %ID/g; tissue uptake at 24 h (in vivo; Kidneys uptake): 1.3 to 1.7 %ID/g; tissue uptake at 4 h (in vivo; Liver uptake): 1.7 ± 0.2 %ID/g; tissue uptake at 24 h (in vivo; Liver uptake): 0.21 ± 0.03 %ID/g; tissue uptake at 4 h (in vivo; Lung uptake): 3 ± 0.7 %ID/g; tissue uptake at 24 h (in vivo; Lung uptake): 0.12 ± 0.02 %ID/g; tissue uptake at 4 h (in vivo; Muscle uptake): 0.57 ± 0.1 %ID/g; tissue uptake at 24 h (in vivo; Muscle uptake): < 0.03 %ID/g; tissue uptake at 4 h (in vivo; Pancreas uptake): 0.82 ± 0.17 %ID/g; tissue uptake at 24 h (in vivo; Pancreas uptake): 0.04 ± 0.01 %ID/g; tissue uptake at 4 h (in vivo; Salivary glands uptake): 1.2 ± 0.3 %ID/g; tissue uptake at 24 h (in vivo; Salivary glands uptake): 0.12 ± 0.03 %ID/g; tissue uptake at 4 h (in vivo; Spleen uptake): 1 ± 0.2 %ID/g; tissue uptake at 24 h (in vivo; Spleen uptake): 0.13 ± 0.02 %ID/g; tissue uptake at 4 h (in vivo; Stomach uptake): 0.73 ± 0.29 %ID/g; tissue uptake at 24 h (in vivo; Stomach uptake): 0.05 ± 0.01 %ID/g |
